Experimental data: patent US20230321067A1, “DOSING REGIMEN COMPRISING 3-(1-OXOISOINDOLIN-2-YL)PIPERIDINE-2,6-DIONE DERIVATIVES” (Novartis AG, priority 2020, published 2023)
Several values for one entry are separate records, joined by “and”; a condition that tells them apart may be missing. Equal entries are not always repeated. Entries after “also recorded” stand apart in the source; their conditions may differ. Where two headings read alike, the source gives them in different places.

Assays:
IKZF2 [1] = assay: IKZF2 degradation in primary rabbit PBMCs; assay type: cell-based
Protocol: (§1) I-57 mediated degradation of IKZF2 was assessed in primary PBMCs obtained from rabbit, dog, pig, cynomolgus monkey, and human, and in primary splenocytes of mouse and rat. […] Species-specificity due to species specific alteration CRBN primary structure have previously been described with other compounds known to interact with the CRBN ubiquitin ligase complex to elicit protein specific degradation (Krönke et al, 2015).

CYP2B6 = CYP2B6 (Homo sapiens, UniProt P20813); assay: Time-dependent CYP inhibition: CYP2B6; assay type: in vitro ADME; conditions: I-57 concentrations of up to 100 μM
CYP2B6, sequence (P20813 whole entry): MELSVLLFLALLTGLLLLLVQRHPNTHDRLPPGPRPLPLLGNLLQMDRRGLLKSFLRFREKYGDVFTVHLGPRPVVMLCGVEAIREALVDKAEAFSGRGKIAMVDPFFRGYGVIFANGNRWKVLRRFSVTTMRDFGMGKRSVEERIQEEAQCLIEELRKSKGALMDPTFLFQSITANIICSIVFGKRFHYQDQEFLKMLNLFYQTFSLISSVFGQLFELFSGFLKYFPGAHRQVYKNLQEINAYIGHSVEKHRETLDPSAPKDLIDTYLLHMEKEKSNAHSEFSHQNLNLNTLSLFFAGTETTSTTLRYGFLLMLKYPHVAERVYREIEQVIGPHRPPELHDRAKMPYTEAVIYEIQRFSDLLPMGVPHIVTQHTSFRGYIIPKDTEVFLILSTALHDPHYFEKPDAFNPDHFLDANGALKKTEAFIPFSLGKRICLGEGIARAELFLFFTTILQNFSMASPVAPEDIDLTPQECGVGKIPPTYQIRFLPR

CYP2D6 = CYP2D6 (Homo sapiens, UniProt P10635); assay: Time-dependent CYP inhibition: CYP2D6; assay type: in vitro ADME; conditions: I-57 concentrations of up to 100 μM
CYP2D6, sequence (P10635 whole entry): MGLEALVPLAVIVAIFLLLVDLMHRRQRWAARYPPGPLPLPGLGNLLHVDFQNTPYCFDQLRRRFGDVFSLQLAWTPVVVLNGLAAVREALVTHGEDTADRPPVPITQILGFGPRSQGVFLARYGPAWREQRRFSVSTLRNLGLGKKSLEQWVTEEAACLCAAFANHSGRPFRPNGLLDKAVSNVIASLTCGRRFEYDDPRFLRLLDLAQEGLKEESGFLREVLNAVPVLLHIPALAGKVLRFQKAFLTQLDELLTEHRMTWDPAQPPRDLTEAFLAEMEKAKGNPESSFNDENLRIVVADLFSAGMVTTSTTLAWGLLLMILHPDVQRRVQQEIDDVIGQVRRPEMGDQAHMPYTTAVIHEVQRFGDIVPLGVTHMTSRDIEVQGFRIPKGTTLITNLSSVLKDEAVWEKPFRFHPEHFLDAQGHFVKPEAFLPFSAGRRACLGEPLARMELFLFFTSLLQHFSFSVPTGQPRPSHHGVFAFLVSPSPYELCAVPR

PXR = PXR (Homo sapiens, UniProt O75469); assay: PXR reporter gene assay (CYP3A induction potential); assay type: cell-based
PXR, sequence (O75469 whole entry): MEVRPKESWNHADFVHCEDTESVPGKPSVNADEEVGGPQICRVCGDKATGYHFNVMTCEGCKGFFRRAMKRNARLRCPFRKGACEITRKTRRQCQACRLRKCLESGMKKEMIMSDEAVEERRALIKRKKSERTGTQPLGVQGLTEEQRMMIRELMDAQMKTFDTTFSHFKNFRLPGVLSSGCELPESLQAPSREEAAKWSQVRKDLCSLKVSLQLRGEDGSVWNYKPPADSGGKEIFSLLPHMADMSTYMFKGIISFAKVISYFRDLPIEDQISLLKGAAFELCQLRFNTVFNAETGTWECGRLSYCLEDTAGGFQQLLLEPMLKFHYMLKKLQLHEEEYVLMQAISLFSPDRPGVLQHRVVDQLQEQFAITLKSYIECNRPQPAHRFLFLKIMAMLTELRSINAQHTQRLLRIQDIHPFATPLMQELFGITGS
From the text: Based on a PXR reporter gene assay, I-57's induction potential for CYP3A appears to be low.

[2] = Repeated oral dose PK in MDA-MB231 xenograft human PBMC adoptive transfer model; assay type: in vivo, NSG mice; conditions: hPBMC AdT mouse
Protocol: The PK/PD relationship of I-57 was examined in the hPBMC AdT model system. Human PBMCs were adoptively transferred into female NSG mice harboring established MDA-MB231 xenografts (FIG. 6). This model was selected based on the observation that IKZF2 positive Tregs (CD4+FOXP3+) were readily identifiable in peripheral blood and infiltrated in the tumor xenografts.
Mice were administered I-57 daily for 14 consecutive days at the doses shown. Longitudinal I-57 plasma concentrations were assessed (Table 14).

IKZF2 [3] = biological target: T1, IKZF2 (Oryctolagus cuniculus, UniProt A0A5F9CPW0); assay: Degradation of IKZF2 in primary PBMCs, rabbit (FIG. 3); assay type: cell-based
T1 construct: endogenous in cells; host or cells: primary rabbit PBMCs
T1 sequence (A0A5F9CPW0 1-526): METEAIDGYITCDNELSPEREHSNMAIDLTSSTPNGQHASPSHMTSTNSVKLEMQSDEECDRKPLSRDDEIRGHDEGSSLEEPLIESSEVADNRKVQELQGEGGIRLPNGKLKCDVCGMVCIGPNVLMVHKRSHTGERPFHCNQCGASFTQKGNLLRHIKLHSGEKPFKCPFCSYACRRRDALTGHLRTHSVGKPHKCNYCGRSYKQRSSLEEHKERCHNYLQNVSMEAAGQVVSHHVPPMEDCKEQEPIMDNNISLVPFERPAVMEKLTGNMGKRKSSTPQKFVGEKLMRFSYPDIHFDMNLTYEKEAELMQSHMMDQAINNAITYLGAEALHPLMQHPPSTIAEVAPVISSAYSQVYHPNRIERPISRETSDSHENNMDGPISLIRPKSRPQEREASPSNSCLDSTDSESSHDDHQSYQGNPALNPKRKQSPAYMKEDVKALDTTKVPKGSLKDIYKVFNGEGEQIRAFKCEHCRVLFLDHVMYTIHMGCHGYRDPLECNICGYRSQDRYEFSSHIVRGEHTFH
From the text: FIG. 3. is a bar graph showing the degradation of IKZF2 in primary PBMCs obtained from rabbit, dog, pig, cynomolgus monkey and human, and in primary splenocytes of mouse and rat and treated with Compound I-57.

[4] = test system: IFNγ production in Teff cells; assay: IFNγ production in Teff cells (FIG. 2D); assay type: cell-based; conditions: 2.5 nM, 25 nM and 2.5 μM vs DMSO
[5] = Toxicology studies: CNS and respiratory signs; assay type: in vivo
From the text: The non-clinical safety profile of I-57 was established in vitro, and in vivo in rats and cynomolgus monkeys in studies up to 4-weeks duration. Based on the outcome of these studies, QTc interval prolongation was identified as the principal safety signal for I-57. There were other toxicities such as diarrhea and vomiting in monkeys, and mortality, clinical signs and target organ toxicities in rats; however, these occurred at exposures far above those expected to result in clinical activity.

IKZF2 [6] = biological target: IKZF2 (Homo sapiens, UniProt Q96SW2+Q9UKS7); assay: IKZF2 degradation in primary human PBMCs; assay type: cell-based; parameters: endogenous in cells; host or cells: primary human PBMCs
IKZF2 (Homo sapiens, UniProt Q96SW2+Q9UKS7), sequence (Q9UKS7 whole entry): as the sequence (A0A5F9CPW0 1-526) above, with D68E, V234M, M266I, S373A, N423H, V449A counted along it
IKZF2 (Homo sapiens, UniProt Q96SW2+Q9UKS7), sequence (Q96SW2 whole entry): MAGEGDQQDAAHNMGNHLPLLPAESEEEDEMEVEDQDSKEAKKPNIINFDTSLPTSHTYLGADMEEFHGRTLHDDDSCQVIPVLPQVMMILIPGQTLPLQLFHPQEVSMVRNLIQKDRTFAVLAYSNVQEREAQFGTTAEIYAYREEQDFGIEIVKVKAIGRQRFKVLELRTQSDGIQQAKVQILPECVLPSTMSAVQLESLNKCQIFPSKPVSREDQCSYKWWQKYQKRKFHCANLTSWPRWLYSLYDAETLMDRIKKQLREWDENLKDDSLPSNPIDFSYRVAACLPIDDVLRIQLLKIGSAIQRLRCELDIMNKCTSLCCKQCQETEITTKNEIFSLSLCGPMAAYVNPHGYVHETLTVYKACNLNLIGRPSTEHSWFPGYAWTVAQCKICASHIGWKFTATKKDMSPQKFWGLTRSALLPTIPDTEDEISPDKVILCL
IKZF2 (Homo sapiens, UniProt Q96SW2+Q9UKS7), sequence (Q16531 whole entry partner): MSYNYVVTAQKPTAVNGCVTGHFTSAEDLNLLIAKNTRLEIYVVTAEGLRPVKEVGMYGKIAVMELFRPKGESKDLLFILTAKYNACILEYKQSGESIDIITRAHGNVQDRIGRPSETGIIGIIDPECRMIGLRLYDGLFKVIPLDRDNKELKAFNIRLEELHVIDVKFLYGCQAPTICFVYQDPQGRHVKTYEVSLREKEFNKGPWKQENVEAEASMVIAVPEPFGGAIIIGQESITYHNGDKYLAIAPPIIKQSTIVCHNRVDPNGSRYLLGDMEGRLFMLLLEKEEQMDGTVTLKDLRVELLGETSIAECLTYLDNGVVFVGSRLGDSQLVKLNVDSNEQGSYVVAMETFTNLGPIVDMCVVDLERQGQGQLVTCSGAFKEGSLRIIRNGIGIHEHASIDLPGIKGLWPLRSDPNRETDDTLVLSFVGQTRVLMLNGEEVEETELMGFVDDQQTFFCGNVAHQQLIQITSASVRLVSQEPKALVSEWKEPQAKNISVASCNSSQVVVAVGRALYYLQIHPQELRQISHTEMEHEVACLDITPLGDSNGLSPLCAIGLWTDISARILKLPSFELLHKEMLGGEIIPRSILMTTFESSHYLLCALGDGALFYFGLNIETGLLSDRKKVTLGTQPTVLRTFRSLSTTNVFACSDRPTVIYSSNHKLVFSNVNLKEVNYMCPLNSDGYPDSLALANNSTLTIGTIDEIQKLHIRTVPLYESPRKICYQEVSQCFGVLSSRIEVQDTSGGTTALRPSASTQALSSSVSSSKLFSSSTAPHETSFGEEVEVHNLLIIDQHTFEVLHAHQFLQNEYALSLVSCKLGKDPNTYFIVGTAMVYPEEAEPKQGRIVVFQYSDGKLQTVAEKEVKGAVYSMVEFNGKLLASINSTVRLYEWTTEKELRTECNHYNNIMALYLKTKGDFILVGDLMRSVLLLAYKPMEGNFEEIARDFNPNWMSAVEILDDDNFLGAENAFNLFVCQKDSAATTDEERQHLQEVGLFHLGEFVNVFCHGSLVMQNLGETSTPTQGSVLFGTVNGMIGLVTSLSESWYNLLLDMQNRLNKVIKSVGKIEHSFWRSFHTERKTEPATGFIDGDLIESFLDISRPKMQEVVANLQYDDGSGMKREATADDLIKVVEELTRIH
From the text: Although the specific transcriptional targets of IKZF2 remain to be defined, IKZF2 binds to and represses transcription from the IL-2 promoter region (Baine 2013). […] Finally, an in vitro assay recapitulating hallmarks of T cell dysfunction/exhaustion, by sequential TCR stimulation of isolated primary human T cells, was used to test the hypothesis that […] would rescue the exhausted phenotype and enhance Teff cell activity. […] In addition to IKZF1, other known cereblon substrates including translation termination factor G1 to S phase transition 1 (GSPT1) are not degraded by I-57 (FIG. 1).
as §1

plasma protein [7] = assay: Plasma protein binding in vitro, monkey; assay type: in vitro ADME
From the text: (§2) The binding to plasma protein of I-57 in vitro was moderate in all species, with an observed difference between rodents (73% in mouse, 76% in rat) and non-rodents (52% in dog and monkey, 54% in human). Blood-to-plasma ratios were in the range of 0.7-1.8 (human 1.1-1.3). […] Based on results with non-radiolabeled I-57 in the dog, a significant amount of unchanged I-57 was renally eliminated (˜20% of dose).

plasma protein [8] = assay: Plasma protein binding in vitro, dog; assay type: in vitro ADME
From the text: as §2

CYP2C8 = CYP2C8 (Homo sapiens, UniProt P10632); assay: Time-dependent CYP inhibition: CYP2C8; assay type: in vitro ADME; conditions: I-57 concentrations of up to 100 μM
CYP2C8, sequence (P10632 whole entry): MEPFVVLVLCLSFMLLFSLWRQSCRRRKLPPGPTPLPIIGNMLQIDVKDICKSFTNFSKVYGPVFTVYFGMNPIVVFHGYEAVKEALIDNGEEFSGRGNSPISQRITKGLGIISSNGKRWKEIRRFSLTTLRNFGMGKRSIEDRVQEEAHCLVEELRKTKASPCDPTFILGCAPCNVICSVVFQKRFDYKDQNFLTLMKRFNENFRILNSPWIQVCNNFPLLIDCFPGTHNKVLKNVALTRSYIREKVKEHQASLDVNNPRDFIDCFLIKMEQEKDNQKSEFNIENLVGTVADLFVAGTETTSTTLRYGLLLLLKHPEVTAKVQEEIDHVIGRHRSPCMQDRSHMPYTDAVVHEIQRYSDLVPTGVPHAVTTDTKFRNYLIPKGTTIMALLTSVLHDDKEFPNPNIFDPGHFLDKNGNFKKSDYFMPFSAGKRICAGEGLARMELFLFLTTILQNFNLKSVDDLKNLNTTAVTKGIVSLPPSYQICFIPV

[9] = Single oral dose PK in cynomolgus monkey; assay type: in vivo; conditions: for Cmax / AUC(0-t): plasma; for Cmax / AUC(0-t) / AUC24 h/Dose / Cmax/Dose: unbound, n = 3, mean ± SD; for AUC(0-t): read-out: AUC24 h
Protocol: The PK/PD relationship of I-57 was examined in cynomolgus monkeys after a single oral dose of 0.01, 0.1 or 1 mg/kg. I-57 plasma concentration and IKZF2 expression (as determined by flow cytometry) in FOXP3+ T cells from PBMCs were determined (FIG. 4 and FIG. 5).

Treg cells = assay: Suppressive potency of Treg cells expanded in the presence of compound (FIG. 2C); assay type: cell-based
From the text: FIG. 2C is a bar graph showing the suppressive potency of Treg cells expanded in the presence of Compound I-57.

[10] = female, NSG, mouse, plasma, po, 0.3 mg/kg, unbound, post 1st dose, p.o. 0.3 mg/kg daily
[11] = female, NSG, mouse, plasma, po, 0.3 mg/kg, unbound, post 13th dose, p.o. 0.3 mg/kg daily
[12] = female, NSG, mouse, plasma, po, 1 mg/kg, unbound, post 1st dose, p.o. 1 mg/kg daily
[13] = female, NSG, mouse, plasma, po, 1 mg/kg, unbound, post 13th dose, p.o. 1 mg/kg daily
[14] = female, NSG, mouse, plasma, po, 3 mg/kg, unbound, post 1st dose, p.o. 3 mg/kg daily
[15] = female, NSG, mouse, plasma, po, 3 mg/kg, unbound, post 13th dose, p.o. 3 mg/kg daily
[16] = female, NSG, mouse, plasma, po, 30 mg/kg, unbound, post 1st dose, p.o. 30 mg/kg daily
[17] = female, NSG, mouse, plasma, po, 30 mg/kg, unbound, post 13th dose, p.o. 30 mg/kg daily

O=C1CCC(N2Cc3cc(C4CCN(Cc5ccccc5)CC4)ccc3C2=O)C(=O)N1 (stereo not shown) [Compound I-57, 3-(5-(1-benzylpiperidin-4-yl)-1-oxoisoindolin-2-yl)piperidine-2,6-dione]
degradation of IKZF2 (IKZF2 [1]): Degradation was observed
time-dependent inhibition of CYP2B6 (CYP2B6): no apparent time-dependent inhibition
time-dependent inhibition of CYP2D6 (CYP2D6): no apparent time-dependent inhibition
phototoxic potential (Phototoxic potential): no genotoxic or phototoxic potential
induction potential for CYP3A (PXR): low
AUC(0-inf) [2, 10]: 7.1 ng·h/mL
Cmax [2, 10]: 2.9 ng/mL
AUC(0-inf) [2, 11]: 7.5 ng·h/mL
Cmax [2, 11]: 1.1 ng/mL
AUC(0-inf) [2, 12]: 30 ng·h/mL
Cmax [2, 12]: 8.8 ng/mL
AUC(0-inf) [2, 13]: 20 ng·h/mL
Cmax at 13 days [2, 13]: 4.6 ng/mL
AUC(0-inf) [2, 14]: 157 ng·h/mL
Cmax [2, 14]: 53 ng/mL
AUC(0-inf) [2, 15]: 92 ng·h/mL
Cmax [2, 15]: 27 ng/mL
AUC(0-inf) [2, 16]: 3470 ng·h/mL
Cmax [2, 16]: 1250 ng/mL
AUC(0-inf) [2, 17]: 4270 ng·h/mL
Cmax [2, 17]: 1300 ng/mL
dose proportionality of AUC and Cmax ([2]; between 3 and 30 mg/kg): over-dose proportional increase
change in exposure by repeated dosing ([2]; daily dosing): No significant increase in exposure
dose proportionality of AUC and Cmax ([2]; from 0.3 to 3 mg/kg): dose proportional increase
degradation of IKZF2 (IKZF2 [3]): degradation was observed
IFNγ production by IKZF2+ cells [4]: concomitant increase in IFNγ production
CNS or respiratory signs [5]: no CNS or respiratory signs
DC50 (IKZF2 [6]; human PBMC, read-out: AC50 for IKZF2 degradation (converted)): ~4 nM and ~4.07 nM
degradation of IKZF2 (IKZF2 [6]; primary human PBMCs in vitro): potent degradation; also recorded: Degradation was observed
binding to plasma protein (plasma protein [7]): 52%
binding to plasma protein (plasma protein [8]): 52%
time-dependent inhibition of CYP2C8 (CYP2C8): no apparent time-dependent inhibition
Cmax ([9]; single oral dose 0.01 mg/kg): 2.11 ± 0.69 ng/mL
AUC(0-t) ([9]; single oral dose 0.01 mg/kg): 14.1 ± 4.72 ng·h/mL
Cmax ([9]; single oral dose 0.1 mg/kg): 13.4 ± 2.77 ng/mL
AUC(0-t) ([9]; single oral dose 0.1 mg/kg): 102 ± 13.2 ng·h/mL
Cmax ([9]; single oral dose 1 mg/kg): 102 ± 45.3 ng/mL
AUC(0-t) ([9]; single oral dose 1 mg/kg): 610 ± 236 ng·h/mL
dose proportionality of exposure ([9]; single oral dose 0.01, 0.1 or 1 mg/kg): slightly less than dose proportional
AUC24 h/Dose ([9]; single oral dose 0.01 mg/kg): 1410 ± 472 (ng · h/mL)/(mg/kg)
Cmax/Dose ([9]; single oral dose 0.01 mg/kg): 211 ± 69.1 (ng/mL)/(mg/kg)
AUC24 h/Dose ([9]; single oral dose 0.1 mg/kg): 1020 ± 136 (ng · h/mL)/(mg/kg)
Cmax/Dose ([9]; single oral dose 0.1 mg/kg): 134 ± 27.7 (ng/mL)/(mg/kg)
AUC24 h/Dose ([9]; single oral dose 1 mg/kg): 610 ± 236 (ng · h/mL)/(mg/kg)
Cmax/Dose ([9]; single oral dose 1 mg/kg): 102 ± 45.3 (ng/mL)/(mg/kg)
capacity of Treg cells to suppress Teff proliferation (Treg cells): reduced capacity to suppress Teff proliferation
